From patent US20090311344A1, “Dosing Regimen” (priority 2008, published 2009)

Legend:
[1] = test system: HT-29 human colon carcinoma xenografts; assay: HT-29 human colon carcinoma xenografts in athymic nude mice: tumor growth delay; assay type: in vivo
From the text: Administration of the TPO Mimetic Peptide Compound One Hour After Administration of Carboplatin. Effect on activity and toxicity of carboplatin against HT-29 human colon carcinoma xenografts established in athymic nude mice.
(§1) Five groups (n=10) of female athymic nude mice (Harlan) bearing established (˜100 mm^3) HT-29 human colon carcinomas on Day 1. Groups 6-9 (n=20) were included for blood sampling and received the same treatment as Groups 1-4, respectively. Treatment effects on the growth of tumors were evaluated by tumor growth delay (TGD), which is the difference between median time to endpoint (TTE) tumor size in a treatment group compared to a control group. The effect of these treatments on platelet and erythrocyte precursors was determined from CBC analysis and reticulocyte counts of blood samples taken on Days 10, 13, 21 and 24.
Xenografts were initiated from HT-29 human colon carcinoma xenografts maintained in athymic nude mice. HT-29 tumor fragments (1 mm^3) were implanted subcutaneously into the right flank of each test mouse, and tumor growth was monitored. On Day 1 of the study, the animals were pair-matched into five groups (Groups 1-5) for evaluation of efficacy and four groups for sampling (Groups 6-9). Groups 1-5 each consisted of ten animals with tumor sizes ranging from 75-126 mm^3 and group mean tumor sizes of 99 mm^3. Groups 6-9 each consisted of twenty animals with tumor sizes ranging from 40-221 mm^3 and group mean tumor sizes of 84 mm^3. Tumor weight was estimated with the assumption that 1 mg is equivalent to 1 mm^3 of tumor volume. Volume was calculated using the formula:
(§2) Group 1 mice (n=10) were untreated tumor growth controls. Group 2 mice (n=10) received 60 mg/kg carboplatin administered intraperitoneally (i.p.) on Days 1, 2, 12, and 13. Group 3 mice (n=10) received 0.2 mg/kg of the TPO mimetic peptide compound administered intravenously (i.v.) via tail vein on Days 2 and 13. Groups 4 and 5 received the combination of carboplatin (60 mg/kg i.p. on Days 1, 2, 12, and 13) and 0.2 mg/kg of the TPO mimetic peptide compound on Days 2, 13 and Days 2, 13, 23, respectively, administered intravenously (i.v.) one hour after carboplatin dosing. Groups 6-9 (n=20 each) were included for blood sampling and received the same treatments as Groups 1-4, respectively. For all groups, each dose of drug was given in a volume of 0.2 mL per 20 g of body weight (10 mL/kg), and was scaled to the body weight of each animal.
Tumors were measured twice each week using calipers. Each animal was euthanized when its tumor reached the predetermined endpoint size of 1000 mm^3, or on the final day of the study (Day 62), whichever came first. The time to endpoint (TTE) for each mouse was calculated from the following equation: […]
where b is the intercept and m is the slope of the line obtained by linear regression of a log-transformed tumor growth data set. The data set was comprised of the first observation that exceeded the study endpoint volume and the three consecutive observations that immediately preceded the attainment of the endpoint volume.
Treatment outcome was determined from tumor growth delay (TGD), which is defined as the increase in the median time to endpoint (TTE) in a treatment group compared to the control group:
where: • T=median TTE for a treatment group, • C=median TTE for the control group (Group 1)
Treatment may cause partial regression (PR) or complete regression (CR) of the tumor in an animal. In a PR response, the tumor volume is 50% or less of its Day 1 volume for three consecutive measurements during the course of the study, and equal to or greater than 13.5 mm^3 for one or more of these three measurements. In a CR response, the tumor volume is less than 13.5 mm^3 for three consecutive measurements during the course of the study. An animal with a CR response at the termination of a study is additionally classified as a long-term tumor-free survivor (LTTFS). […]

[2] = test system: platelets, reticulocytes, hematocrit; assay: CBC analysis and reticulocyte counts in HT-29 tumor-bearing mice (Groups 6-9); assay type: in vivo, athymic nude mice; details: for mean reticulocyte values: Group 7
Procedure: as §1, with “The effect of these treatments on platelet and erythrocyte precursors was determined from CBC analysis and reticulocyte counts of blood samples taken on Days 10, 13, 21 and 24.” left out
as §2
[…] Blood was collected into EDTA tubes, and complete blood counts (CBC) with differential were determined using a Cell-Dyn® 3700 System (Abbott Diagnostics) for automated hematology analyses. Reticulocyte values were determined. In addition, for Groups 1-5, five animals per group were euthanized at or just after endpoint by terminal cardiac puncture under CO2 anesthesia, and gross necropsies were performed. Blood samples were collected into EDTA tubes, and CBC with differential and reticulocyte values were performed as previously described. All other animals in Groups 1-5 were euthanized at endpoint without sampling.

N.N.O=C([O-])C1(C(=O)[O-])CCC1.[Pt+2] [carboplatin, Carboplatin, reference compound]
regression responses ([1]; Group 2): No regression responses were recorded | number of 62-day survivors ([1]; Group 2, n=10): 1 | tumor volume of the animal remaining in the study on Day 62 ([1]; Group 2, one animal): 600 mm^3 | Tumor Burden Median ([1]; Group 2: carboplatin 60 mg/kg i.p. Days 1, 2, 12, 13, (n animals) in brackets): 600(1) | TGD (tumor growth delay) ([1]; Groups 2-4, relative to untreated Group 1, carboplatin 60 mg/kg i.p. Days 1, 2, 12, 13, TPO mimetic peptide compound 0.2 mg/kg i.v. Days 2, 13): 22.8 days | % Tumor Growth Delay ([1]; HT-29 xenografts, athymic nude mice, n=10, carboplatin 60 mg/kg i.p. Days 1, 2, 12, 13, TPO mimetic peptide compound 0.2 mg/kg i.v. Days 2, 13, Groups 2-4, vs untreated Group 1): 92% | Median TTE ([1]; HT-29 xenografts, athymic nude mice, n=10, carboplatin 60 mg/kg i.p. Days 1, 2, 12, 13, TPO mimetic peptide compound 0.2 mg/kg i.v. Days 2, 13, Groups 2-4, endpoint 1000 mm^3): 47.6 days | mean HCT values of Group 7 compared to Group 9 ([2]; Days 13, 21, and 23): slightly lower | mean reticulocyte values ([2]; Day 10 (near the expected nadir)): negligible | mean reticulocyte values ([2]; Day 13): higher than in control mice | mean reticulocyte values ([2]; Day 21 after the second cycle of treatment): low | mean hematocrit (HCT) values compared to untreated mice (Group 6) ([2]; Groups 7-9): lower mean HCT values than controls | mean platelet counts compared to untreated Group 6 controls ([2]; Groups 7-9, regimens as Groups 2-4, Days 10, 13, 21, and 23): lower mean platelet counts at all time points
